Tests used:
TNF-RE tkLuc = test: Effect of antiestrogens on TNF-RE tkLuc (Example 2); assay type: cell-based, human; settings: for effect on the repression induced by E2: TNF-RE tkLuc; for activation of TNF-RE tkLuc: antiestrogens
ERβ [1] = molecular target: T1, ERβ (Homo sapiens, UniProt Q92731); test: ERE-tk-Luc luciferase activation in U2OS cells cotransfected with human ERβ; assay type: cell-based; design: expressed in transfected cells; host or cells: U2OS (human osteosarcoma); settings: competition with the Astragalus extract
breast cancer = settings: cited from earlier work
ERβ [2] = molecular target: T1, ERβ; test: Repression of TNF-α activation of TNF-RE tkLuc in U2OS cells with ERβ; assay type: cell-based; design: expressed in transfected cells
ERβ [3] = molecular target: T1, ERβ; settings: in the presence of ERβ

T1 sequence (Q92731 whole entry): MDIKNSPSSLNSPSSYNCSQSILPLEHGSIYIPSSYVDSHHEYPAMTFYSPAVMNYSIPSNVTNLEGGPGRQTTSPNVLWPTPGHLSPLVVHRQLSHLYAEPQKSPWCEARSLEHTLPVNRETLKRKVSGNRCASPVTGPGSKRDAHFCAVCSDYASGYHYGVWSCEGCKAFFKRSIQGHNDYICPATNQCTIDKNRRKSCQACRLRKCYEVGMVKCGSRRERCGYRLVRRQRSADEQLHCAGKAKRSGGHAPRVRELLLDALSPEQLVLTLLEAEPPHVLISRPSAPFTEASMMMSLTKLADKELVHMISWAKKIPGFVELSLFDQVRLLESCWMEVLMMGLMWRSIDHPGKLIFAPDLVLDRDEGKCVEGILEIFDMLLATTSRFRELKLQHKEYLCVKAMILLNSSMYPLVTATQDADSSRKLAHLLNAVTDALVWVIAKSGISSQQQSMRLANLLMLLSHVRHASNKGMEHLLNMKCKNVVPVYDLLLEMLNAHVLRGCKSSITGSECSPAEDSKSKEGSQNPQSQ

| Structure (SMILES) | effect on the repression induced by E2 (TNF-RE tkLuc) | activation of TNF-RE tkLuc (TNF-RE tkLuc) | effect on the extract's stimulatory effect on the ERE with ERβ (FIG. 6) (ERβ [1]) | reduction of the risk of primary invasive breast cancer (breast cancer; BCPT, women at high risk for breast cancer) | reduction of the risk of recurrences (breast cancer; five years of therapy, women with estrogen receptor-positive breast cancer) | reduction of mortality from breast cancer (breast cancer; five years of therapy) | repression of TNF-α activation of TNF-RE (ERβ [2]) | repression of TNF-α activation of TNF-RE tkLuc (ERβ [3]) |
| --- | --- | --- | --- | --- | --- | --- | --- | --- |
| O=C(c1ccc(OCCN2CCCCC2)cc1)c1c(-c2ccc(O)cc2)sc2cc(O)ccc12 [raloxifene] | abolished | 2 fold | inhibited | – | – | – | – | – |
| CC/C(=C(\c1ccccc1)c1ccc(OCCN(C)C)cc1)c1ccccc1 [tamoxifen] | abolished | 2 fold | – | 49% | 42% | 22% | – | – |
| C[C@]12CC[C@@H]3c4ccc(O)cc4C[C@@H](CCCCCCCCC[S+]([O-])CCCC(F)(F)C(F)(F)F)[C@H]3[C@@H]1CC[C@@H]2O (stereo partly drawn) [ICI 182, 780] | abolished | 2 fold | – | – | – | – | – | – |
| C[C@]12CC[C@@H]3c4ccc(O)cc4CC[C@H]3[C@@H]1CC[C@@H]2O [E2, estradiol] | – | – | – | – | – | – | 100% | 60-80% |

Source: patent US9220740B2
